Data from patent EP0113880A2, “Derivatives from 2-azabicyclo(2.2.1)heptane, process for their preparation, agents containing them and their use, and 2-azabicyclo(2.2.1)heptane derivatives as intermediates, and process for their preparation” (HOECHST AKTIENGESELLSCHAFT, priority 1982, dated 1984).
Where a name gives a salt, the structure may show the parent alone. Read-outs that look alike come from different tables or passages of the source.

System: durch 310 ng Angiotensin I ausgelösten Pressorreaktion
Test: Inhibition of the angiotensin I induced pressor response after intraduodenal administration to the anaesthetised rat
Type: in vivo, Ratte
Details: dose giving 50 % inhibition of the pressor response to 310 ng angiotensin I, 30 min after application
Method: Intraduodenale Gabe an der narkotisierten Ratte, 50 % Hemmung der durch 310 ng Angiotensin I ausgelösten Pressorreaktion 30 min. nach Applikation in der Dosis .............- ED50: […]

## CCOC(=O)[C@H](CC(=O)c1ccccc1)N[C@@H](C)C(=O)N1C2CCC(C2)[C@H]1C(=O)O (stereo partly drawn) [N-(1-S-Carbethoxy-3-oxo-3-phenyl-propyl)-S-alanyl-2-azabicyclo [2.2.1] heptan-3-S-exo-carbonsäure]
  ED50: 0.9 mg/kg

## CCOC(=O)[C@H](CC(=O)c1ccccc1)N[C@@H](C)C(=O)N1[C@H]2CC[C@H](C2)[C@H]1C(=O)O [N-(1-S-Carbethoxy-3-phenyl-3-oxo-propyl)-S-alanyl-2-azabicyclo [2.2.1] heptan-3-S-endo-carbonsäure. Hydrochlorid]
0.5 h, read-out: ED50
  ED50: 0.75 mg/kg

## C[C@H](N[C@@H](CCc1ccccc1)C(=O)O)C(=O)N1C2CCC(C2)[C@H]1C(=O)O (stereo partly drawn) [n=1, X=C6H5, Y=H, Z=H, R^1=H, R^2=CH3, R=H, endo] [N-(1-S-Carboxy-3-phenyl-propyl)-S-alanyl-2-azabicyclo , [2.2.1] heptan-3-S-endo-carbonsäure]
30 min
  ED50: 1.6 mg/kg

## C[C@H](N[C@@H](CCc1ccccc1)C(=O)O)C(=O)N1C2CCC(C2)[C@H]1C(=O)O (stereo partly drawn) [n=1, X=C6H5, Y=H, Z=H, R^1=H, R^2=CH3, R=H, exo] [N-(1-S-Carboxy-3-phenyl-propyl)-S-alanyl-2-azabicyclo [2.2.1 J heptan-3-S-exo-carbonsäure]
30 min
  ED50: 1.8 mg/kg

## N-(1-S-Carbethoxy-3-phenyl-propyl)-S-alanyl-2-azabicyclo [2.2.1 ] heptan-3-S-exo-carbonsäure Hydrochlorid
  ED50: 0.7 mg/kg

## N-(1-S-Carbethoxy-3-phenyl-propyl)-S-alanyl-2-azabicyclo [ 2.2.1] heptan-3-S-endo-carbonsäure-Hydrochlorid
  ED50: 0.5 mg/kg
